Results taken from US11744819B2, “Antibiotic cannabinoid-terpene formulations” (priority 2019, dated 2023).
≈ marks a conversion by molar mass, not a printed value. Where two headings read alike, the source gives them in different places.

Key:
[1] = tested on: Enterococcus faecium 33D3; test: microbe, parasite or virus in culture
[2] = tested on: E. faecium clinical isolate 58C9 (vancomycin and daptomycin resistant); test: microbe, parasite or virus in culture; conditions: Enterococcus faecium
[3] = tested on: biofilms of E. faecium strain 3303; test: Biofilm treatment (crystal violet mass, viable bacteria); assay type: cell-based, Enterococcus faecium; conditions: 48 h biofilms of strain 3303 treated 72 h; FIG. 4
Protocol: The data in FIG. 4 was generated by growing biofilms of E. faecium strain 3303 for 48 h without cannabinoids, then treating the biofilms with cannabinoids for 72 h. The mass of the biofilm was quantitated by crystal violet staining. Viable bacteria in the biofilm were quantitated by scrapping biofilm then counting the viable bacteria. As illustrated, CBO and CBG illustrate a surprising degree of antibiotic activity against the strain 3303 of E. faecium. Of note, CBC was bactericidal against planktonic Enterococci.

[4] = tested on: E. faecium strains 3303, 69C6, 58C9 and 55A6; test: Kill curves (CFU by serial dilution); assay type: cell-based, Enterococcus faecium; conditions: for bactericidal activity (viability, CFU): cannabinoid alone, 1x-4x MIC, planktonic E. faecium; for bactericidal activity (viability, CFU) / kinetics of E. faecium killing: FIG. 1; for growth and CFU in combination with daptomycin: ½×MIC of cannabinoid with 1×-⅛×MIC of daptomycin, strains 3303, 58C9, 55A6; for kinetics of E. faecium killing: at equal concentrations of CBD, CBG, or CBC
[5] = tested on: E. faecium clinical isolate 55A6 (vancomycin and daptomycin resistant); test: microbe, parasite or virus in culture; conditions: Enterococcus faecium
[6] = tested on: Streptococcus pyogenes ATCC 51878; test: MIC determination; assay type: cell-based; conditions: ATCC51878
[7] = tested on: Mycobacterium abscessus ATCC 19977; test: MIC determination (resazurin); assay type: cell-based; conditions: Mycobacteroides abscessus, ATCC19977
[8] = tested on: Staphylococcus epidermidis ATCC 12228; test: MIC determination; assay type: cell-based; conditions: ATCC12228
[9] = tested on: E. faecium clinical isolate 69C6 (vancomycin resistant); conditions: for Fold reduction in daptomycin MIC in combination with the cannabinoid: E. faecium isolate 69C6
[10] = tested on: E. faecium clinical isolate 55A6 (vancomycin and daptomycin resistant); conditions: for Fold reduction in daptomycin MIC in combination with the cannabinoid: E. faecium isolate 55a6
enterococci = conditions: MIC 4 mg/L; 6 mg/kg doses; enterococcal bacteremia; cited from earlier work
[11] = 33D3, Enterococcus faecium 33D3 (Table 1)
[12] = 33D3, clinical enterococcal strain 3303

Row | SMILES | MIC [1, 11] [µg/mL] | MIC [1, 12] [µg/mL] | MIC [2] [µg/mL] | inhibition of E. faecium biofilm growth [3] | bactericidal activity (viability, CFU) [4] | growth and CFU in combination with daptomycin [4] | MIC [5] [µg/mL] | kinetics of E. faecium killing [4] | MIC ([6]; Streptococcus pyogenes) [µg/mL] | MIC [7] [µg/mL] | Fold reduction in daptomycin MIC in combination with the cannabinoid [9] [Fold] | MIC ([8]; Staphylococcus epidermidis) [µg/mL] | Fold reduction in daptomycin MIC in combination with the cannabinoid [10] [Fold] | other results
1 | C=C(C)[C@@H]1CCC(C)=C[C@H]1c1c(O)cc(CCCCC)cc1O [CBD, cannabidiol, reference compound] | 1 to 2 (≈ 3.18 to 6.36 µM) | 1 (≈ 3.18 µM) | 1 (≈ 3.18 µM) | surprisingly effective at inhibiting E. faecium biofilm growth | bactericidal | significantly inhibited growth of all strains and reduced CFU | 2 (≈ 6.36 µM) |  |  |  |  |  |  | MIC ([6]; Streptococcus pyogenes ATCC 51878, read-out: MIC): 1 µg/mL (≈ 3.18 µM); MIC ([7]; Mycobacterium abscessus ATCC 19977, read-out: MIC): 16 µg/mL (≈ 50.9 µM); MIC ([8]; Staphylococcus epidermidis ATCC 12228, read-out: MIC): 2 µg/mL (≈ 6.36 µM)
2 | CCCCCc1cc(O)c2c(c1)OC(C)(CCC=C(C)C)C=C2 (stereo not shown) [CBC, cannabichromene] | 1 to 2 (≈ 3.18 to 6.36 µM) | 1 (≈ 3.18 µM) | 1 (≈ 3.18 µM) |  | bactericidal | significantly inhibited growth of all strains and reduced CFU | 1 (≈ 3.18 µM) | faster than for CBO | 1 (≈ 3.18 µM) | 4 (≈ 12.7 µM) | 32 | 4 (≈ 12.7 µM) | 512 | 
3 | CCCCCc1cc(O)c(C/C=C(\C)CCC=C(C)C)c(O)c1 [CBG, cannabigerol] | 1 to 2 (≈ 3.16 to 6.32 µM) | 1 (≈ 3.16 µM) | 1 (≈ 3.16 µM) | surprisingly effective at inhibiting E. faecium biofilm growth | bactericidal | significantly inhibited growth of all strains and reduced CFU | 1 (≈ 3.16 µM) | faster than for CBO | 1 (≈ 3.16 µM) | 2 (≈ 6.32 µM) | 4 | 2 (≈ 6.32 µM) | 4 | 
4 | CCCCCCCCCC(=O)N[C@@H](Cc1c[nH]c2ccccc12)C(=O)N[C@H](CC(N)=O)C(=O)N[C@@H](CC(=O)O)C(=O)N[C@@H]1C(=O)NCC(=O)N[C@@H](CCCN)C(=O)N[C@@H](CC(=O)O)C(=O)N[C@H](C)C(=O)N[C@@H](CC(=O)O)C(=O)NCC(=O)N[C@H](CO)C(=O)N[C@@H]([C@H](C)CC(=O)O)C(=O)N[C@@H](CC(=O)c2ccccc2N)C(=O)O[C@@H]1C [Daptomycin, daptomycin, reference compound] |  |  |  |  |  |  |  |  |  |  |  |  |  | probability of attaining target pharmacokinetic parameters (enterococci): 1.5-5.5%; reduction in CFU ([4]; daptomycin alone at 1×MIC (growth inhibited)): no reduction in CFU; inhibition of growth ([4]; single agent at ½×MIC, all strains (3303, 58C9, 55A6)): effectively no inhibition of growth; MIC ([9]; clinical enterococcal strain 69C6, vancomycin resistant): 1 µg/mL (≈ 0.617 µM); MIC ([10]; clinical enterococcal strain 55A6, vancomycin and daptomycin resistant): 8 µg/mL (≈ 4.94 µM)
